From patent publication US20110111021A1, “PHARMACEUTICAL PREPARATION” (HANALL BIOPHARMA CO., LTD., priority 2008, published 2011)

How the values were obtained:
[1] = Pharmacokinetic evaluation of aliskiren and atorvastatin in rats (animal test); type: in vivo; details: SD rats, oral, once a day for 8 days
Description: As an experiment to confirm the effects of the invention, an animal test was carried out as follows, in order to confirm the effects of conventional combined administration and inventive chronotherapeutic administration of pharmacologically active ingredients, aliskiren as a renin inhibitor and atorvastatin as an HMG-CoA reductase inhibitor.
1) Title: Pharmacokinetic evaluation of aliskiren and atorvastatin in a hypertensive animal model.
2) Object: It is intended to verify through the chronotherapeutic administration-based pharmacokinetic changes the fact that the problem of pharmacokinetic interaction between different drugs upon simultaneous administration of drug groups metabolized by the same hepatic enzyme can be solved by controlled release of the drugs.
1. Test group: Animals were grouped into two groups (n=6), a group receiving simultaneous administration of aliskiren/atorvastatin, and a group receiving chronotherapeutic administration of aliskiren/atorvastatin.
2. Administration route: Forced intragastric administration via an oral sonde.
3. […]
5. Administration volume: 5 mL/kg based on the body weight of animals measured on the day of administration. […]

[2] = concurrent administration of aliskiren and atorvastatin; cited from earlier work
cytochrome P450 3A4 = cytochrome P450 3A4 (Homo sapiens, UniProt P08684); details: in vitro experiments; cited from earlier work
cytochrome P450 3A4, sequence (P08684 whole entry, species assumed): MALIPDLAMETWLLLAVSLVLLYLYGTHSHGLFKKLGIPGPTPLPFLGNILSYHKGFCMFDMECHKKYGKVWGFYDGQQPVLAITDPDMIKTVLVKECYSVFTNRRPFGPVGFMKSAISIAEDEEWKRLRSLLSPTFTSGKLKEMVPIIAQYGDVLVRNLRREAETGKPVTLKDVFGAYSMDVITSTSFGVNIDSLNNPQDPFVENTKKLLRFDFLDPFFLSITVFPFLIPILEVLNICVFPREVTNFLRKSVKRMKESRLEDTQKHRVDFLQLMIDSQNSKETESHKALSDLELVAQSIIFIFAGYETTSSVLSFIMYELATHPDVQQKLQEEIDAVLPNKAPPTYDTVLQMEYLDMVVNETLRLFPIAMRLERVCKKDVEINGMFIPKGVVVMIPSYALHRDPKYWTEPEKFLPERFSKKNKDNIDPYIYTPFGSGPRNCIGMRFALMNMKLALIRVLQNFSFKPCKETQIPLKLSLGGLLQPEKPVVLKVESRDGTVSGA

[3] = cited from earlier work
[4] = tested on: hepatic enzyme cytochrome P450; details: cited from earlier work

COCCCOc1cc(C[C@@H](C[C@H](N)[C@@H](O)C[C@H](C(=O)NCC(C)(C)C(N)=O)C(C)C)C(C)C)ccc1OC [aliskiren, 2(S),4(S),5(S),7(S)-N-(3-amino-2,2-dimethyl-3-oxopropyl)-2,7-di(1-methylethyl)-4-hydroxy-5-amino-8-[4-methoxy-3-(3-methoxy-propoxy)phenyl]-octanamide]
blood level of aliskiren compared to the single administration group ([1]; aliskiren 300 mg/kg and atorvastatin 80 mg/kg simultaneously): significant increase
blood aliskiren level compared to the single administration group ([1]; aliskiren 300 mg/kg given 4 hours after atorvastatin 80 mg/kg (chronotherapeutic)): equivalent to that of the single administration group
increase in blood aliskiren level [2]: 50%
metabolism by cytochrome P450 3A4 (cytochrome P450 3A4): metabolized by cytochrome P450 3A4
bioavailability ([3]; in vivo): ≤ 2%
half-life ([3]; in vivo): 24 h
decrease in bioavailability ([3]; when high-fat diet is ingested): 71%
decrease in peak blood level ([3]; when high-fat diet is ingested): 85%
inhibition or induction of hepatic enzyme cytochrome P450 [4]: does not inhibit or induce

CC(C)C[C@H](O)[C@H](O)[C@H](CC1CCCCC1)NC(=O)[C@H](Cc1cscn1)NC(=O)[C@H](Cc1ccccc1)CS(=O)(=O)N1CCN(C)CC1 [zankiren]
bioavailability (in words) ([3]; in vivo): low
half-life (in words) ([3]; in vivo): short

COc1ccc(C[C@H](NC(=O)CC(C)(C)N)C(=O)N[C@@H](Cc2cnc[nH]2)C(=O)N[C@@H](CC2CCCCC2)[C@@H](O)[C@@H](O)CC(C)C)cc1 [enalkiren]
bioavailability (in words) ([3]; in vivo): low
half-life (in words) ([3]; in vivo): short

CC(C)(C)S(=O)(=O)C[C@@H](Cc1ccccc1)C(=O)N[C@@H](Cc1cnc[nH]1)C(=O)N[C@@H](CC1CCCCC1)[C@@H](O)[C@@H](O)C1CC1 [remikiren]
bioavailability (in words) ([3]; in vivo): low
half-life (in words) ([3]; in vivo): short
